# Measured values from patent publication US3955959A, “Herbicide for use in transplanted rice” (priority 1974, dated 1976).
# Columns and labels:
# Cd (Cyperus difformis) = assay: Example 6 weed control, JAAPR, Japan; type: in vivo
# Protocol: (§1) In this example, the efficacy of Herbicide A is presented for a variety of weeds in the presence of ordinary and infant transplant rice. In this example, tests were conducted at the said JAAPR Lab at different times of the year. "Early season" transplants were made in April and "Normal season" transplants were made in July. The size of the transplants at the respective seasons were: Season Seedling Type Plant Height (cm) Leaf Stage ______________________________________ Early Ordinary 16.5 4.5 Early Infant 9.1 2.4 Normal Ordinary 41.7 5.3 Normal Infant 14.7 1.9 ______________________________________
# (§2) Duplicate treatments were used. At the time of application of the herbicide, the status of the grass (EC) was as follows: […]
# Et (Elatine triandra) = assay: Example 6 weed control, JAAPR, Japan; type: in vivo
# Protocol: as §1, §2
# [1] = test system: Ea (Eleocharis acicularis); assay: Example 6 weed control, JAAPR, Japan; type: in vivo
# Protocol: as §1, §2
# [2] = test system: Obw (other broadleaf weeds); assay: Example 6 weed control, JAAPR, Japan; type: in vivo; conditions: ordinary
# Protocol: as §1, §2
# Cs (Cyperus serotinus) = assay: Example 6 weed control, JAAPR, Japan; type: in vivo; conditions: Normal season
# Protocol: as §1, §2
# Ri (Rotala indica) = assay: Example 6 weed control, JAAPR, Japan; type: in vivo
# Protocol: as §1, §2
# [3] = test system: Ec (Echinochloa crusgalli); assay: Example 6 weed control, JAAPR, Japan; type: in vivo
# Protocol: as §1, §2
# Sp (Sagittaria pygmaea) = assay: Example 6 weed control, JAAPR, Japan; type: in vivo; conditions: Normal season
# Protocol: as §1, §2
# Sh (Scirpus hotarui) = assay: Example 6 weed control, JAAPR, Japan; type: in vivo; conditions: Normal season
# Protocol: as §1, §2
# [4] = test system: direct-seeded rice plants; conditions: 1.0 lb/ac and 0.25 lb/ac; '620 and '945 Table I; cited from earlier work
# [5] = Early season, ordinary, 1.0 kg/ha, 3 DAT
# [6] = Early season, ordinary, 1.0 kg/ha, 12 DAT
# [7] = Early season, ordinary, 1.0 kg/ha, -2 DAT
# [8] = Early season, ordinary, .5 kg/ha, 3 DAT
# [9] = Early season, ordinary, .5 kg/ha, 12 DAT
# [10] = Early season, ordinary, .5 kg/ha, -2 DAT
# [11] = Normal season, infant, 1.0 kg/ha, 3 DAT
# [12] = Normal season, infant, 1.0 kg/ha, 7 DAT
# [13] = Normal season, infant, 1.0 kg/ha, -2 DAT
# [14] = Normal season, infant, .5 kg/ha, 3 DAT
# [15] = Normal season, infant, .5 kg/ha, 7 DAT
# [16] = Normal season, infant, .5 kg/ha, -2 DAT
# [17] = Normal season, ordinary, 1.0 kg/ha, 3 DAT
# [18] = Normal season, ordinary, 1.0 kg/ha, 7 DAT
# [19] = Normal season, ordinary, 1.0 kg/ha, -2 DAT
# [20] = Normal season, ordinary, .5 kg/ha, 3 DAT
# [21] = Normal season, ordinary, .5 kg/ha, 7 DAT
# [22] = Normal season, ordinary, .5 kg/ha, -2 DAT
smiles,measurement,setting,value
"CCCCOCN(C(=O)CCl)c1c(C)cccc1C(C)(C)C [Herbicide A, n-(butoxymethyl)-6'-tert-butyl-2-chloro-o-acetotoluidide]",% Weed Control (Cd),Cd (Cyperus difformis); [5],100%
same,% Weed Control (Cd),Cd (Cyperus difformis); [6],100%
same,% Weed Control (Cd),Cd (Cyperus difformis); [7],100%
same,% Weed Control (Cd),Cd (Cyperus difformis); [8],100%
same,% Weed Control (Cd),Cd (Cyperus difformis); [9],100%
same,% Weed Control (Cd),Cd (Cyperus difformis); [10],100%
same,% Weed Control (Cd),Cd (Cyperus difformis); [11],100%
same,% Weed Control (Cd),Cd (Cyperus difformis); [12],100%
same,% Weed Control (Cd),Cd (Cyperus difformis); [13],100%
same,% Weed Control (Cd),Cd (Cyperus difformis); [14],100%
same,% Weed Control (Cd),Cd (Cyperus difformis); [15],100%
same,% Weed Control (Cd),Cd (Cyperus difformis); [16],100%
same,% Weed Control (Cd),Cd (Cyperus difformis); [17],100%
same,% Weed Control (Cd),Cd (Cyperus difformis); [18],100%
same,% Weed Control (Cd),Cd (Cyperus difformis); [19],100%
same,% Weed Control (Cd),Cd (Cyperus difformis); [20],100%
same,% Weed Control (Cd),Cd (Cyperus difformis); [21],100%
same,% Weed Control (Cd),Cd (Cyperus difformis); [22],100%
same,% Weed Control (Et),Et (Elatine triandra); [5],95%
same,% Weed Control (Et),Et (Elatine triandra); [6],70%
same,% Weed Control (Et),Et (Elatine triandra); [7],95%
same,% Weed Control (Et),Et (Elatine triandra); [8],70%
same,% Weed Control (Et),Et (Elatine triandra); [9],< 40%
same,% Weed Control (Et),Et (Elatine triandra); [10],95%
same,% Weed Control (Et),Et (Elatine triandra); [11],100%
same,% Weed Control (Et),Et (Elatine triandra); [12],100%
same,% Weed Control (Et),Et (Elatine triandra); [13],100%
same,% Weed Control (Et),Et (Elatine triandra); [14],100%
same,% Weed Control (Et),Et (Elatine triandra); [15],100%
same,% Weed Control (Et),Et (Elatine triandra); [16],100%
same,% Weed Control (Et),Et (Elatine triandra); [17],100%
same,% Weed Control (Et),Et (Elatine triandra); [18],100%
same,% Weed Control (Et),Et (Elatine triandra); [19],100%
same,% Weed Control (Et),Et (Elatine triandra); [20],100%
same,% Weed Control (Et),Et (Elatine triandra); [21],100%
same,% Weed Control (Et),Et (Elatine triandra); [22],100%
same,% Weed Control (Ea),[1]; [5],100%
same,% Weed Control (Ea),[1]; [6],100%
same,% Weed Control (Ea),[1]; [7],100%
same,% Weed Control (Ea),[1]; [8],100%
same,% Weed Control (Ea),[1]; [9],100%
same,% Weed Control (Ea),[1]; [10],100%
same,% Weed Control (Ea),[1]; [11],100%
same,% Weed Control (Ea),[1]; [12],100%
same,% Weed Control (Ea),[1]; [13],100%
same,% Weed Control (Ea),[1]; [14],100%
same,% Weed Control (Ea),[1]; [15],100%
same,% Weed Control (Ea),[1]; [16],100%
same,% Weed Control (Ea),[1]; [17],100%
same,% Weed Control (Ea),[1]; [18],100%
same,% Weed Control (Ea),[1]; [19],100%
same,% Weed Control (Ea),[1]; [20],100%
same,% Weed Control (Ea),[1]; [21],100%
same,% Weed Control (Ea),[1]; [22],100%
same,% Weed Control (Obw),"[2]; Early season, 1.0 kg/ha, 3 DAT",100%
same,% Weed Control (Obw),"[2]; Early season, 1.0 kg/ha, 12 DAT",50%
same,% Weed Control (Obw),"[2]; Early season, 1.0 kg/ha, -2 DAT",100%
same,% Weed Control (Obw),"[2]; Early season, .5 kg/ha, 3 DAT",100%
same,% Weed Control (Obw),"[2]; Early season, .5 kg/ha, 12 DAT",100%
same,% Weed Control (Obw),"[2]; Early season, .5 kg/ha, -2 DAT",100%
same,% Weed Control (Obw),"[2]; Normal season, 1.0 kg/ha, 3 DAT",100%
same,% Weed Control (Obw),"[2]; Normal season, 1.0 kg/ha, 7 DAT",100%
same,% Weed Control (Obw),"[2]; Normal season, 1.0 kg/ha, -2 DAT",100%
same,% Weed Control (Obw),"[2]; Normal season, .5 kg/ha, 3 DAT",100%
same,% Weed Control (Obw),"[2]; Normal season, .5 kg/ha, 7 DAT",100%
same,% Weed Control (Obw),"[2]; Normal season, .5 kg/ha, -2 DAT",100%
same,% Weed Control (Cs),"Cs (Cyperus serotinus); infant, 1.0 kg/ha, 3 DAT",100%
same,% Weed Control (Cs),"Cs (Cyperus serotinus); infant, 1.0 kg/ha, 7 DAT",100%
same,% Weed Control (Cs),"Cs (Cyperus serotinus); infant, 1.0 kg/ha, -2 DAT",100%
same,% Weed Control (Cs),"Cs (Cyperus serotinus); infant, .5 kg/ha, 3 DAT",100%
same,% Weed Control (Cs),"Cs (Cyperus serotinus); infant, .5 kg/ha, 7 DAT",100%
same,% Weed Control (Cs),"Cs (Cyperus serotinus); infant, .5 kg/ha, -2 DAT",100%
same,% Weed Control (Cs),"Cs (Cyperus serotinus); ordinary, 1.0 kg/ha, 3 DAT",100%
same,% Weed Control (Cs),"Cs (Cyperus serotinus); ordinary, 1.0 kg/ha, 7 DAT",100%
same,% Weed Control (Cs),"Cs (Cyperus serotinus); ordinary, 1.0 kg/ha, -2 DAT",100%
same,% Weed Control (Cs),"Cs (Cyperus serotinus); ordinary, .5 kg/ha, 3 DAT",100%
same,% Weed Control (Cs),"Cs (Cyperus serotinus); ordinary, .5 kg/ha, 7 DAT",100%
same,% Weed Control (Cs),"Cs (Cyperus serotinus); ordinary, .5 kg/ha, -2 DAT",100%
same,% Weed Control (Ri),Ri (Rotala indica); [5],100%
same,% Weed Control (Ri),Ri (Rotala indica); [6],100%
same,% Weed Control (Ri),Ri (Rotala indica); [7],100%
same,% Weed Control (Ri),Ri (Rotala indica); [8],100%
same,% Weed Control (Ri),Ri (Rotala indica); [9],100%
same,% Weed Control (Ri),Ri (Rotala indica); [10],100%
same,% Weed Control (Ri),Ri (Rotala indica); [11],100%
same,% Weed Control (Ri),Ri (Rotala indica); [12],100%
same,% Weed Control (Ri),Ri (Rotala indica); [13],100%
same,% Weed Control (Ri),Ri (Rotala indica); [14],100%
same,% Weed Control (Ri),Ri (Rotala indica); [15],100%
same,% Weed Control (Ri),Ri (Rotala indica); [16],100%
same,% Weed Control (Ri),Ri (Rotala indica); [17],100%
same,% Weed Control (Ri),Ri (Rotala indica); [18],100%
same,% Weed Control (Ri),Ri (Rotala indica); [19],100%
same,% Weed Control (Ri),Ri (Rotala indica); [20],100%
same,% Weed Control (Ri),Ri (Rotala indica); [21],100%
same,% Weed Control (Ri),Ri (Rotala indica); [22],100%
same,% Weed Control (Ec),[3]; [5],100%
same,% Weed Control (Ec),[3]; [6],100%
same,% Weed Control (Ec),[3]; [7],100%
same,% Weed Control (Ec),[3]; [8],100%
same,% Weed Control (Ec),[3]; [9],100%
same,% Weed Control (Ec),[3]; [10],100%
same,% Weed Control (Ec),[3]; [11],100%
same,% Weed Control (Ec),[3]; [12],100%
same,% Weed Control (Ec),[3]; [13],100%
same,% Weed Control (Ec),[3]; [14],100%
same,% Weed Control (Ec),[3]; [15],100%
same,% Weed Control (Ec),[3]; [16],100%
same,% Weed Control (Ec),[3]; [17],100%
same,% Weed Control (Ec),[3]; [18],100%
same,% Weed Control (Ec),[3]; [19],100%
same,% Weed Control (Ec),[3]; [20],100%
same,% Weed Control (Ec),[3]; [21],95%
same,% Weed Control (Ec),[3]; [22],100%
same,% Weed Control (Sp),"Sp (Sagittaria pygmaea); infant, 1.0 kg/ha, 3 DAT",< 40%
same,% Weed Control (Sp),"Sp (Sagittaria pygmaea); infant, 1.0 kg/ha, 7 DAT",< 40%
same,% Weed Control (Sp),"Sp (Sagittaria pygmaea); infant, 1.0 kg/ha, -2 DAT",< 40%
same,% Weed Control (Sp),"Sp (Sagittaria pygmaea); infant, .5 kg/ha, 3 DAT",< 40%
same,% Weed Control (Sp),"Sp (Sagittaria pygmaea); infant, .5 kg/ha, 7 DAT",< 40%
same,% Weed Control (Sp),"Sp (Sagittaria pygmaea); infant, .5 kg/ha, -2 DAT",< 40%
same,% Weed Control (Sp),"Sp (Sagittaria pygmaea); ordinary, 1.0 kg/ha, 3 DAT",< 40%
same,% Weed Control (Sp),"Sp (Sagittaria pygmaea); ordinary, 1.0 kg/ha, 7 DAT",< 40%
same,% Weed Control (Sp),"Sp (Sagittaria pygmaea); ordinary, 1.0 kg/ha, -2 DAT",< 40%
same,% Weed Control (Sp),"Sp (Sagittaria pygmaea); ordinary, .5 kg/ha, 3 DAT",< 40%
same,% Weed Control (Sp),"Sp (Sagittaria pygmaea); ordinary, .5 kg/ha, 7 DAT",< 40%
same,% Weed Control (Sp),"Sp (Sagittaria pygmaea); ordinary, .5 kg/ha, -2 DAT",< 40%
same,% Weed Control (Sh),"Sh (Scirpus hotarui); infant, 1.0 kg/ha, 3 DAT",100%
same,% Weed Control (Sh),"Sh (Scirpus hotarui); infant, 1.0 kg/ha, 7 DAT",100%
same,% Weed Control (Sh),"Sh (Scirpus hotarui); infant, 1.0 kg/ha, -2 DAT",100%
same,% Weed Control (Sh),"Sh (Scirpus hotarui); infant, .5 kg/ha, 3 DAT",100%
same,% Weed Control (Sh),"Sh (Scirpus hotarui); infant, .5 kg/ha, 7 DAT",100%
same,% Weed Control (Sh),"Sh (Scirpus hotarui); infant, .5 kg/ha, -2 DAT",100%
same,% Weed Control (Sh),"Sh (Scirpus hotarui); ordinary, 1.0 kg/ha, 3 DAT",100%
same,% Weed Control (Sh),"Sh (Scirpus hotarui); ordinary, 1.0 kg/ha, 7 DAT",100%
same,% Weed Control (Sh),"Sh (Scirpus hotarui); ordinary, 1.0 kg/ha, -2 DAT",100%
same,% Weed Control (Sh),"Sh (Scirpus hotarui); ordinary, .5 kg/ha, 3 DAT",100%
same,% Weed Control (Sh),"Sh (Scirpus hotarui); ordinary, .5 kg/ha, 7 DAT",100%
same,% Weed Control (Sh),"Sh (Scirpus hotarui); ordinary, .5 kg/ha, -2 DAT",100%
same,phytotoxicity to direct-seeded rice,[4],severe phytotoxicity
